# Assay results: publication PMC4710668, “Bioactivation of food genotoxicants 5-hydroxymethylfurfural and furfuryl alcohol by sulfotransferases from human, mouse and rat: a comparative study” (Archives of Toxicology, 2014)
# “And” between values parts separate entries of the source, which are not always exact repeats. Equal entries are not always repeated. Marks after values point to notes of the source that are not given here.
# Experiments:
# Test in all cases: FFA sulfoconjugation assay (N6-MF-A formation with adenosine as scavenger)
# Assay type in all cases: biochemical
# rSult2a3 = biological target: T1, rSult2a3 (Rattus norvegicus, UniProt P22789)
# T1 construct: made in house; host or cells: Salmonella typhimurium TA1538 (cytosolic fraction, enzyme not purified)
# T1 sequence (P22789 2-284 limits assumed): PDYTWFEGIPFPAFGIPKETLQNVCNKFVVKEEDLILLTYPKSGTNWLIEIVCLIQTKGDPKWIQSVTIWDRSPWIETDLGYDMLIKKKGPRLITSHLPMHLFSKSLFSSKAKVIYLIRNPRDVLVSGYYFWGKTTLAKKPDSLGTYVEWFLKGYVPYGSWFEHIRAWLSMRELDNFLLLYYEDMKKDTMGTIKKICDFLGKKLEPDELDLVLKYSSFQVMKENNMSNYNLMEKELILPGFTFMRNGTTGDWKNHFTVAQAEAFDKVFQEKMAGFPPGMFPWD
# Protocol: (§1) Cytosolic fractions containing individual SULT forms were prepared from transgenic S. typhimurium TA1538. Table S1 in the Supplementary Material provides a summary of the thirty SULTs used in the current study together with references describing the cloning of the respective S. typhimurium TA1538 strains. The expressed SULT forms are denoted with the prefixes h, m and r for human, mouse and rat enzymes, respectively. Bacteria were grown in Luria Broth medium containing ampicillin (100 µg/ml) by stirring for 8 h at 200 revolutions/min at 37 °C. The bacterial suspensions were centrifuged at 5,000 g for 10 min. The sediments were washed twice with 25 ml of 10 mM potassium phosphate buffer (pH 7.4)/50 mM potassium chloride (KCP buffer) and centrifuged again. The pellets were taken up in 800 µl KCP buffer and sonicated thrice for 15 s with 30 s pauses in between. The soluble fraction was attained by centrifuging for 1 h at 100,000 g. The supernatants (in the following termed cytosolic preparations) were frozen at −80 °C. The protein concentrations were determined according to a bicinchoninic acid (BCA) assay protocol. The SULT concentrations in the cytosolic preparations were estimated after electrophoretic separation and immunodetection using inclusion bodies of different SULT forms as standards (Teubner et al. [2007]). The preparation of SULT inclusion bodies and the immunodetection of SULTs is described in the Supplementary Material, which also contains a representative immunoblot of different amounts of rSult1a1standard and a cytosolic preparation of S. typhimurium expressing rSult1a1 (Fig. S1).
# (§2) The reaction mixtures were prepared as described for HMF. In addition, they contained 10 mM adenosine as a nucleophilic scavenger. Following incubation for 20 min at 37 °C, sulfoconjugation reactions were stopped by adding 100 µl cold methanol containing 175 fmol of [^15N5]N ^6-MF-A as the internal standard, mixed and centrifuged at 15,000 g for 10 min. The clear supernatants were subjected to UPLC-MS/MS analyses. Incubations were performed as quadruplicates. At higher concentrations, FFA reacts spontaneously with adenosine at low, but detectable, levels. To correct for the SULT-independent adduct formation, mixtures with SULT-deficient cytosols were carried along simultaneously in duplicate. Controls were subtracted from the experimental samples.
# (§3) The ribonucleoside adduct N ^6-((furan-2-yl)methyl)-adenosine (N ^6-MF-A) was analyzed by isotope-dilution UPLC-MS/MS with the same system described above using a HSS T3 column (1.8 µm, 2.1 × 100 mm, Waters). Samples of 8 µl were eluted with 10 mM ammonium bicarbonate buffer, pH 8.0 (A) and methanol (B) using an 6-min gradient from 98 % solvent A to 15 % solvent A at 0.35 ml/min flow rate (Yin et al. [2013]). The electrospray interface of the mass spectrometer operated in the positive ion mode. The fragmentations of N ^6-MF-A into the aglycone cation [N ^6-((furan-2-yl)methyl)-adenine-H]^+ (m/z = 348.1 → 216.1), the cleavage of the 2-methylfuranyl cation (m/z = 348.1 → 81.0) and the release of [N ^6-methyl-adenine-H]^+ (m/z = 348.1 → 148.0) were monitored together with the corresponding fragmentations of the isotope-labeled internal standard [^15N5]N ^6-MF-A for the formation of the aglycone (m/z = 353.1 → 221.1), the 2-methylfuran cation (m/z = 353.1 → 81.0) and ^15N5-labeled N ^6-methyl-adenine (m/z = 353.1 → 153.0). The N ^6-MF-A content of the incubation mixture was calculated from the ratio of peak areas resulting from the total ion current of all three MRM signals of the analyte. For the fragmentation of N ^6-MF-A ([^15N5]N ^6-MF-A), collision energies were 20, 25 and 35 eV for the transitions m/z = 348.1 → 216.1 (m/z = 353.1 → 221.1), m/z = 348.1 → 148.0 (m/z = 353.1 → 153.0) and m/z = 348.1 → 81.0 (m/z = 353.1 → 81.0), respectively. […]
# hSULT4A1 = biological target: T2, hSULT4A1 (Homo sapiens, UniProt Q9BR01)
# T2 construct: made in house; host or cells: Salmonella typhimurium TA1538 (cytosolic fraction, not purified)
# T2 sequence (Q9BR01 1-284): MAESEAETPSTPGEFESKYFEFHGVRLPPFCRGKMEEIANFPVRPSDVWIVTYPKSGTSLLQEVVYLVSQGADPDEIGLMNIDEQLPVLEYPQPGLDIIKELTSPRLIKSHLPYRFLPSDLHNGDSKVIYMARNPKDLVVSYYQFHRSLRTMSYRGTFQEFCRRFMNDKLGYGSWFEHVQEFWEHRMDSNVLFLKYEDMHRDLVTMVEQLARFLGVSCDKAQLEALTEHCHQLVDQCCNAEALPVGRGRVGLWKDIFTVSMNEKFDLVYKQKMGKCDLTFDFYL
# Protocol: as §1, §2, §3
# hSULT1C2 = biological target: T3, hSULT1C2 (Homo sapiens, UniProt O75897)
# T3 construct: made in house; host or cells: Salmonella typhimurium TA1538 (cytosolic fraction, not purified)
# Protocol: as §1, §2, §3
# mSult2a2 = biological target: T4, mSult2a2 (Mus musculus, UniProt P50236)
# T4 construct: made in house; host or cells: Salmonella typhimurium TA1538 (cytosolic fraction, enzyme not purified)
# T4 sequence (P50236 1-285): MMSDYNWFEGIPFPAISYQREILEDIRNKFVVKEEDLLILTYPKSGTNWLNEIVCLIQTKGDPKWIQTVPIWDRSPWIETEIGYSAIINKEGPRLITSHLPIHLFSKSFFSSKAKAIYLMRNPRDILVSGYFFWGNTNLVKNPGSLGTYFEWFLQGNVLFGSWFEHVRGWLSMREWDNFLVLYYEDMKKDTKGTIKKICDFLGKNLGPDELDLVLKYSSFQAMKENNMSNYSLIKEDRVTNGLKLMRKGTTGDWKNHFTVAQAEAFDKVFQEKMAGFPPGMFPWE
# Protocol: as §1, §2, §3
# hSULT1C3 = biological target: T5, hSULT1C3 (Homo sapiens, UniProt Q6IMI6)
# T5 construct: made in house; host or cells: Salmonella typhimurium TA1538 (cytosolic fraction, not purified)
# Protocol: as §1, §2, §3
# T5 sequence (Q6IMI6 whole entry): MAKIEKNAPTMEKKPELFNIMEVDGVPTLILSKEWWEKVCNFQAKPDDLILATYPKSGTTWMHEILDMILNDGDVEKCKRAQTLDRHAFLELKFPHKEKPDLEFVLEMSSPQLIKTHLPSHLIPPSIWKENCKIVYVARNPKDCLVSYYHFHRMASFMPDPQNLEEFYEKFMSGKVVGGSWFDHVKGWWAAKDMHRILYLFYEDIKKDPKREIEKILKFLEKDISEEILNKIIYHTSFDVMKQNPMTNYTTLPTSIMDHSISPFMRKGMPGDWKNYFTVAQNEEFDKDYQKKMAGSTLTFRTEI
# T3 sequence (O75897 whole entry): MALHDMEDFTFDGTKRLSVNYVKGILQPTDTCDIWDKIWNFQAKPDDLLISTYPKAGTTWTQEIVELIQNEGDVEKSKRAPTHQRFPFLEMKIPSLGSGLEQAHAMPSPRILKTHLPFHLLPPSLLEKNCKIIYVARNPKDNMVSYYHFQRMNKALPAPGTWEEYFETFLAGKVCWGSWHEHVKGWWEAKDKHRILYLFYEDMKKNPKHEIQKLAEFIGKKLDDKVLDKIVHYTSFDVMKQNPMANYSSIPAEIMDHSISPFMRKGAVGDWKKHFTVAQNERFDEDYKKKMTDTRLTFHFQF
compound,measurement,setting,value
"OCc1ccco1 [FFA, furfuryl alcohol]",Rate of N6-MF-A formation,rSult2a3; 0.1 mM FFA,48.3 ± 1.3 fmol N ^6-MF-A/mg/min
same,Rate of N6-MF-A formation,rSult2a3; 1 mM FFA,461 ± 8 fmol N ^6-MF-A/mg/min
same,Rate of N6-MF-A formation,rSult2a3; 10 mM FFA,"3,420 ± 30 fmol N ^6-MF-A/mg/min"
same,Rate of N6-MF-A formation,hSULT4A1; 0.1 mM FFA,<18 fmol N ^6-MF-A/mg/min
same,Rate of N6-MF-A formation,hSULT4A1; 1 mM FFA,<20 fmol N ^6-MF-A/mg/min
same,Rate of N6-MF-A formation,hSULT4A1; 10 mM FFA,<44 fmol N ^6-MF-A/mg/min
same,Rate of N6-MF-A formation,hSULT1C2; 0.1 mM FFA,51.3 ± 0.8 fmol N ^6-MF-A/mg/min
same,Rate of N6-MF-A formation,hSULT1C2; 1 mM FFA,459 ± 2 fmol N ^6-MF-A/mg/min
same,Rate of N6-MF-A formation (corr.),"hSULT1C2; 1 mM FFA, corrected by actual SULT concentration in the cytosolic preparation","45,900 fmol N ^6-MF-A/mg/min and 45,900 ± 200 fmol N ^6-MF-A/mg/min"
same,Rate of N6-MF-A formation,hSULT1C2; 10 mM FFA,"2,230 ± 10 fmol N ^6-MF-A/mg/min"
same,Rate of N6-MF-A formation,mSult2a2; 0.1 mM FFA,<18 fmol N ^6-MF-A/mg/min
same,Rate of N6-MF-A formation,mSult2a2; 1 mM FFA,<20 fmol N ^6-MF-A/mg/min
same,Rate of N6-MF-A formation,mSult2a2; 10 mM FFA,216 ± 3 fmol N ^6-MF-A/mg/min
same,Rate of N6-MF-A formation,hSULT1C3; 0.1 mM FFA,<18 fmol N ^6-MF-A/mg/min
same,Rate of N6-MF-A formation,hSULT1C3; 1 mM FFA,61.8 ± 0.3 fmol N ^6-MF-A/mg/min
same,Rate of N6-MF-A formation (corr.),"hSULT1C3; 1 mM FFA, corrected by SULT concentration reported in Meinl et al. [2006]","3,090 ± 10^b fmol N ^6-MF-A/mg/min"
same,Rate of N6-MF-A formation,hSULT1C3; 10 mM FFA,248 ± 3 fmol N ^6-MF-A/mg/min
